Laboratory results published in patent US6395732B1, “Pyrimidin-aminomethyl-pyridine derivatives, their preparation and their use in the control of helicobacter bacteria” (BYK Gulden Lomberg Chemische Fabrik GmbH, priority 1998, dated 2002).

How the values were obtained:
Helicobacter pylori = experiment: Activity against Helicobacter pylori, agar method of Iwahi et al. (MIC 50); type: cell-based; conditions: Columbia agar (Oxoid), growth period of 4 days, approximate values; for MIC50: Helicobacter pylori, 96 h, read-out: Appr. MIC 50
Description: The compounds of the formula I were investigated with respect to their activity against Helicobacter pylori following the method described by Tomoyuki Iwahi et al. (Antimicrobial Agents and Chemotherapy, 1991, 490-496) using Columbia agar (Oxoid) and a growth period of 4 days.

| Structure (SMILES) | melting point | Appr. MIC 50 (Helicobacter pylori) | MIC50 (Helicobacter pylori) |
| --- | --- | --- | --- |
| Cc1nc(C)c(Cl)c(NCc2nccc(OCCCCN3CCN(Cc4ccncc4)CC3)c2C)n1 [Compound 11, (5-Chloro-2,6-dimethylpyrimidin-4-yl)-{3-methyl-4-[4-(4-pyridin-4-ylmethylpiperazin-1-yl)butoxy]pyridin-2-ylmethyl}amine] | 157 to 158 °C |  |  |
| Cc1nc(C)c(Cl)c(NCc2nccc(SCCCSCCO[C@@H]3O[C@H](CO)[C@@H](O)[C@H](O)[C@H]3O)c2C)n1 [Compound 39, 2-(3-{2-[(5-Chloro-2,6-dimethyl-pyrimidin-4-ylamino)-methyl]-3-methyl-pyridin-4-ylsulfanyl}-propylsulfanyl)-β-D-glucopyranoside] |  | ≦0.1 μg/ml |  |
| Cc1nc(C)c(Cl)c(NCc2nccc(SCCCN3CCN(CC4CN(Cc5ccncc5)C(=O)O4)CC3)c2C)n1 (centres unmarked) [Compound 38, 5-[4-(3-{2-[(5-Chloro-2,6-dimethyl-pyrimidin-4-ylamino)-methyl]-3-methyl-pyridin-4-ylsulfanyl}-propyl)-piperazin-1-ylmethyl]-3-pyridin-4-ylmethyl-oxazolidin-2-one] | 123 to 126 °C |  | ≤ 0.1 µg/mL |
| Cc1nc(C)c(Cl)c(NCc2nccc(SCCOCCOCCSCc3ccncc3)c2C)n1 [Compound 43, (5-Chloro-2,6-dimethyl-pyrimidin-4-yl)-[3-methyl-4-(2-{2-[2-(pyridin-4-ylmethylsulfanyl)-ethoxy]-ethoxy}-ethylsulfanyl)-pyridin-2-ylmethyl]-amine] | 84 to 86 °C |  | ≤ 0.1 µg/mL |
| CN(CCO)c1ccnc(CNc2ncncc2Cl)c1Cl [Compound 55, 2-({3-Chloro-2-[(5-chloro-pyrimidin-4-ylamino)-methyl]-pyridin-4-yl}-methyl-amino)-ethanol] | 158 to 161 °C |  | ≤ 0.1 µg/mL |
| Cc1nc(C)c(Cl)c(NCc2nccc(OCCCCSCc3cccnc3)c2C)n1 [Compound 50] |  | ≦0.1 μg/ml |  |
| Cc1nc(C)c(Cl)c(NCc2nccc(OCCCCSCc3ccncc3)c2C)n1 [Compound 15, (5-Chloro-2,6-dimethylpyrimidin-4-yl)-{3-methyl-4-[4-(piridin-4-ylmethylsulfanyl)-butoxy]pyridin-2-ylmethyl}amine] |  | ≦0.1 μg/ml |  |
| Cc1nc(C)c(Cl)c(NCCCSc2ccnc(CNc3nc(C)nc(C)c3Cl)c2C)n1 [Compound 7, {4-[3-(5-Chloro-2,6-dimethylpyrimidin-4-ylamino)propylsulfanyl]-3-methylpyridin-2-yl-methyl}-(5-chloro-2,6-dimethylpyrimidin-4-yl)amine] |  |  | ≤ 0.1 µg/mL |
| Cc1nc(C)c(Cl)c(NCc2nccc(N(C)CCN3CCc4ccccc4C3)c2Cl)n1 [Compound 1, (3-Chloro-4-{[2-(3,4-dihydro-1H-isoquinolin-2-yl)ethyl]methylamino}pyridin-2-ylmethyl)-(5-chloro-2,6-dimethylpyrimidin-4-yl)amine] | 81 to 93 °C |  |  |
| Cc1nc(C)c(Cl)c(NCc2nccc(SCCCSc3ncc(-c4ccccc4)[nH]3)c2C)n1.Cl | 188 to 190 °C |  |  |
| Cc1nc(C)c(Cl)c(NCc2nccc(OCCCCN3CCNCC3)c2C)n1 [Compound 14, (5-Chloro-2,6-dimethylpyrimidin-4-yl)-[3-methyl-4-(4-piperazin-1-ylbutoxy)pyridin-2-ylmethyl]amine] | 140 to 144 °C |  |  |
| Cc1nc(C)c(Cl)c(NCc2nccc(CNCCO)c2Cl)n1 [Compound 2, 2-({3-Chloro-2-[(5-chloro-2,6-dimethylpyrimidin-4-ylamino)methyl]pyridin-4-yl}methylamino)ethanol] | 162 to 165 °C |  |  |
| Cc1nc(C)c(Cl)c(NCc2nccc(OCCCCSc3ncccn3)c2C)n1 [Compound 6] |  | ≦0.1 μg/ml |  |
| Cc1nc(C)c(Cl)c(NCc2nccc(SCCCCN3CCN(Cc4ccncc4)CC3)c2C)n1 [Compound 12, (5-Chloro-2,6-dimethylpyrimidin-4-yl)-{3-methyl-4-[4-(4-pyridin-4-ylmethylpiparazin-1-yl)butylsulfanyl]pyridin-2-ylmethyl}amine] |  | ≦0.1 μg/ml |  |
